Measured values: patent US12583835B2, “Crystal form of nitroxoline prodrug, pharmaceutical composition containing same, and preparation method therefor and application thereof” (Jiangsu Yahong Meditech Co., Ltd., priority 2020, dated 2026)

Columns and labels:
[1] = Stability test of crystal form A; type: physicochemical
Procedure: The crystal forms obtained in Examples 2-10 were packaged in double-layer PE bags+aluminum foil bags+cardboard barrels, sealed and stored at a temperature of 40° C. and a relative humidity of 75%; a temperature of 25° C. and a relative humidity of 60%; at 5±3° C. for 6 months. The inspection items (appearance, moisture, related substance 1, related substance 2, content) were tested, and the specific test methods were as follows.
• Moisture Meter • Electronic balance 1.2 Reagents • Karl Fischer titrant: analytical grad • Anhydrous methanol: analytical grade 1.3 Detection Method • About 50 mL of methanol was pumped into the titration beaker for pre-titration; • About 1.0 g of the test sample was accurately weighed and put into the titration beaker, stirred to dissolve, and the moisture of the test sample was titrated; • The weight of the test sample added, the concentration of the Karl Fischer titrant and the volume of the Karl Fischer titrant consumed during determination were recorded; the moisture of the second test sample was determined using the same method. 1.4 Calculation Formula
[formula] • V—Volume of Karl Fischer titrant consumed for the test sample, mL; • F—Equivalent mass of water per 1 mL of Karl Fischer titrant, mg/mL; • W—Weighed sample amount of the test sample, g. 2 Related Substance 1 2.1 Chromatographic Conditions: High Performance Liquid Chromatography (HPLC) • Column: Waters XBridge C18 4.6×150 mm, 5 μm • Detector: UV or equivalent detector • Wavelength: 210 nm • Column temperature: 35° C. • Flow rate: 1.0 mL/min • Injection volume: 10 μL • Needle Wash: Acetonitrile • Mobile phase gradient: […]
About 25 mg of the test sample was accurately weighed and put into a 50 mL volumetric flask. The diluent was added to dissolve the substance and dilute the solution to the mark, and the solution was shaken well.
[formula] • AU—the peak area of impurities in the test sample solution; • AT—Total peak area of the test sample solution. • 2) Total impurity (%)=Σ single impurity
• 3 Related Substance 2 (D-isobutyrylproline) • 3.1 Chromatographic Conditions: High Performance Liquid Chromatography (HPLC) • Column: Synergi Hydro RP 4.6×250 mm, 4 μm • Detector: UV or equivalent detector • Wave length: 210 nm • Column temperature: 35° C. • Flow rate: 1.0 mL/min • Injection volume: 5 μL • Needle Wash: Acetonitrile • Mobile phase gradient: […]
About 20 mg of the test sample was accurately weighed and put into a 10 mL volumetric flask. The diluent was added to dissolve the test sample and dilute the solution to the mark, and the solution was shaken well. Two solutions were prepared in parallel and labeled as S1/S2 respectively. • 3.4 Calculation: Only the Peak of Related Substance 2 was Integrated
[formula] [formula] • ARS2—Average peak area of reference solution 2; • ARS1—Average peak area of 5 injections of reference solution 1; • As—Peak area of related substance 2 in the test sample solution; • MRS1—Weighed sample amount of related substance 2 in reference solution 1, mg; • Ms—Weighed sample amount of the test sample in the test sample solution, mg; • MRS2—Weighed sample amount of related substance 2 in reference solution 2, mg; […]

[2] = Dynamic vapour sorption (DVS); type: physicochemical
Procedure: The DVS curves were acquired on DVS Intrinsic of SMS (Surface Measurement Systems). The relative humidity at 25° C. was corrected for the deliquescence points of LiCl, Mg(NO3)2 and KCl. • Test temperature: 25° C. • Sample amount: 10-20 mg • Shielding gas and flow: nitrogen, 200 mL/min • dm/dt: 0.002%/min; • Minimum dm/dt equilibration time: 10 min • Maximum equilibration time: 180 min • RH range: 0% RH-95% RH-0% RH • RH gradient: 10% 6. Polarizing Light Microscope (PLM)
The X-ray powder diffraction (XRPD) pattern of the solid is shown in FIG. 1, and the XRPD diffraction peak data thereof is shown in Table 1 below. […] (onset temperature). […] The PLM results are shown in FIG. 5, which indicate that the solid is irregular crystal particles. This crystal form is defined as crystal form A.

Appearance ([1]; 5 ± 3° C., Time 0): Yellow solid | Content ([1]; 5 ± 3° C., Time 0): 101.1% | Moisture ([1]; 5 ± 3° C., Time 0): 0.09% | Related substance 1 5-Nitro-8-hydroxyquinoline ([1]; 5 ± 3° C., Time 0): 0.04% | Related substance 1 Impurity 1 ([1]; 5 ± 3° C., Time 0): 0.27% | Related substance 1 Maximum unknown single impurity ([1]; 5 ± 3° C., Time 0): RRT 1.126: 0.07% | Related substance 1 Total impurities ([1]; 5 ± 3° C., Time 0): 0.53% | Related substance 2 ([1]; 5 ± 3° C., Time 0): 0.06% | Appearance ([1]; 5 ± 3° C., Time 6 M): Yellow solid | Content ([1]; 5 ± 3° C., Time 6 M): 99.6% | Moisture ([1]; 5 ± 3° C., Time 6 M): 0.1% | Related substance 1 Impurity 1 ([1]; 5 ± 3° C., Time 6 M): 0.3% | Related substance 1 Impurity 2 ([1]; 5 ± 3° C., Time 6 M): <0.01% | Related substance 1 Maximum unknown single impurity ([1]; 5 ± 3° C., Time 6 M): RRT 1.121: 0.07% | Related substance 1 Total impurities ([1]; 5 ± 3° C., Time 6 M): 0.5% | Related substance 2 ([1]; 5 ± 3° C., Time 6 M): 0.03% | Appearance ([1]; 25° C., 60% RH, Time 0): Yellow solid | Content ([1]; 25° C., 60% RH, Time 0): 101.1% | Moisture ([1]; 25° C., 60% RH, Time 0): 0.09% | Related substance 1 Impurity 1 ([1]; 25° C., 60% RH, Time 0): 0.27% | Related substance 1 Maximum unknown single impurity ([1]; 25° C., 60% RH, Time 0): RRT 1.126: 0.07% | Related substance 1 Total impurities ([1]; 25° C., 60% RH, Time 0): 0.53% | Related substance 2 ([1]; 25° C., 60% RH, Time 0): 0.06% | Appearance ([1]; 25° C., 60% RH, Time 3 M): Yellow solid | Content ([1]; 25° C., 60% RH, Time 3 M): 99.3% | Moisture ([1]; 25° C., 60% RH, Time 3 M): 0.07% | Related substance 1 Impurity 1 ([1]; 25° C., 60% RH, Time 3 M): 0.32% | Related substance 1 Impurity 2 ([1]; 25° C., 60% RH, Time 3 M): <0.01% | Related substance 1 Maximum unknown single impurity ([1]; 25° C., 60% RH, Time 3 M): RRT 1.123: 0.06% | Related substance 1 Total impurities ([1]; 25° C., 60% RH, Time 3 M): 0.51% | Related substance 2 ([1]; 25° C., 60% RH, Time 3 M): 0.04% | Appearance ([1]; 25° C., 60% RH, Time 6 M): Yellow solid | Content ([1]; 25° C., 60% RH, Time 6 M): 99.8% | Moisture ([1]; 25° C., 60% RH, Time 6 M): <0.1% | Related substance 1 Impurity 1 ([1]; 25° C., 60% RH, Time 6 M): 0.3% | Related substance 1 Impurity 2 ([1]; 25° C., 60% RH, Time 6 M): <0.01% | Related substance 1 Maximum unknown single impurity ([1]; 25° C., 60% RH, Time 6 M): RRT 1.121: 0.06% | Related substance 1 Total impurities ([1]; 25° C., 60% RH, Time 6 M): 0.5% | Related substance 2 ([1]; 25° C., 60% RH, Time 6 M): 0.04% | Appearance ([1]; 40° C., 75% RH, Time 0): Yellow solid | Content ([1]; 40° C., 75% RH, Time 0): 101.1% | Moisture ([1]; 40° C., 75% RH, Time 0): 0.09% | Related substance 1 5-Nitro-8-hydroxyquinoline ([1]; 40° C., 75% RH, Time 0): 0.04% | Related substance 1 Impurity 1 ([1]; 40° C., 75% RH, Time 0): 0.27% | Related substance 1 Maximum unknown single impurity ([1]; 40° C., 75% RH, Time 0): RRT 1.126: 0.07% | Related substance 1 Total impurities ([1]; 40° C., 75% RH, Time 0): 0.53% | Related substance 2 ([1]; 40° C., 75% RH, Time 0): 0.06% | Appearance ([1]; 40° C., 75% RH, Time 1 M): Yellow solid | Content ([1]; 40° C., 75% RH, Time 1 M): 101.1% | Moisture ([1]; 40° C., 75% RH, Time 1 M): 0.06% | Related substance 1 5-Nitro-8-hydroxyquinoline ([1]; 40° C., 75% RH, Time 1 M): 0.02% | Related substance 1 Impurity 1 ([1]; 40° C., 75% RH, Time 1 M): 0.27% | Related substance 1 Maximum unknown single impurity ([1]; 40° C., 75% RH, Time 1 M): RRT 1.125: 0.06% | Related substance 1 Total impurities ([1]; 40° C., 75% RH, Time 1 M): 0.52% | Related substance 2 ([1]; 40° C., 75% RH, Time 1 M): 0.05% | Appearance ([1]; 40° C., 75% RH, Time 2 M): Yellow solid | Content ([1]; 40° C., 75% RH, Time 2 M): 98.8% | Moisture ([1]; 40° C., 75% RH, Time 2 M): 0.09% | Related substance 1 Impurity 1 ([1]; 40° C., 75% RH, Time 2 M): 0.27% | Related substance 1 Impurity 2 ([1]; 40° C., 75% RH, Time 2 M): 0.01% | Related substance 1 Maximum unknown single impurity ([1]; 40° C., 75% RH, Time 2 M): RRT 1.132: 0.05% | Related substance 1 Total impurities ([1]; 40° C., 75% RH, Time 2 M): 0.44% | Related substance 2 ([1]; 40° C., 75% RH, Time 2 M): 0.06% | Appearance ([1]; 40° C., 75% RH, Time 3 M): Yellow solid | Content ([1]; 40° C., 75% RH, Time 3 M): 99.3% | Moisture ([1]; 40° C., 75% RH, Time 3 M): 0.06% | Related substance 1 Impurity 1 ([1]; 40° C., 75% RH, Time 3 M): 0.32% | Related substance 1 Maximum unknown single impurity ([1]; 40° C., 75% RH, Time 3 M): RRT 1.123: 0.05% | Related substance 1 Total impurities ([1]; 40° C., 75% RH, Time 3 M): 0.49% | Related substance 2 ([1]; 40° C., 75% RH, Time 3 M): 0.10% | Appearance ([1]; 40° C., 75% RH, Time 6 M): Yellow solid | Content ([1]; 40° C., 75% RH, Time 6 M): 99.7% | Moisture ([1]; 40° C., 75% RH, Time 6 M): <0.1% | Related substance 1 5-Nitro-8-hydroxyquinoline ([1]; 40° C., 75% RH, Time 6 M): <0.1% | Related substance 1 Impurity 1 ([1]; 40° C., 75% RH, Time 6 M): 0.3% | Related substance 1 Impurity 2 ([1]; 40° C., 75% RH, Time 6 M): <0.01% | Related substance 1 Maximum unknown single impurity ([1]; 40° C., 75% RH, Time 6 M): RRT 0.896: 0.04% | Related substance 1 Total impurities ([1]; 40° C., 75% RH, Time 6 M): 0.6% | Related substance 2 ([1]; 40° C., 75% RH, Time 6 M): 0.15% | crystal form before and after the DVS test (XRPD) [2]: unchanged | vapor sorption (DVS) ([2]; 25° C./80% RH): 0.17%
Structure (SMILES): CC(C)C(=O)N1CCC[C@H]1C(=O)OCOc1ccc([N+](=O)[O-])c2cccnc12 [crystal form A, ((5-nitroquinolin-8-yl)oxy)methyl-isobutyryl-L-prolinate]
